From ChEMBL document CHEMBL1201862, “PubChem BioAssay data set” (2004)
Activity calls are given as the source filed them.

Tests used:
[1] = inhibitors acting on PAX2 in cells – cell-based, plate reader, dry powder samples, selectivity assay for PAX8 inhibitor project, dose response (AID 743048); assay type: functional;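 further: HEK293 cells carrying a WT1 promoter luciferase reporter driven by expressed Pax2; potency is for inhibition of Pax2 driven reporter signal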
Vero [2] = assay: cells; assay type: functional, cell-based; settings: Chlorocebus sabaeus
Paired box protein Pax-8 = Paired box protein Pax-8 (Homo sapiens, UniProt Q06710); assay: PAX8 transcriptional activity inhibition in RMG-I – RMG-I cells, luciferase, cherry-pick, dose response (AID 687027); assay type: functional, cell-based;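 further: luciferase reporter driven by Pax8 target thyroperoxidase promoter measured by SteadyGlo luminescence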
Vero [3] = assay: cells; assay type: functional; settings: Chlorocebus sabaeus
[4] = PAX8-dependent cell viability loss – plate reader, dry powder, dose response (AID 743049); assay type: functional, cell-based
[5] = PAX5 cellular inhibition readout – cell-based, plate reader, dry powder samples, selectivity assay for PAX8 inhibitor project, dose response (AID 743047); assay type: functional;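 further: HEK293 cells carrying a Pax5 driven CD19 promoter luciferase reporter; potency of inhibitors that lower reporter luminescence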
[6] = mouse fibroblast viability loss – cell-based, cherry-pick samples, set 2, cytotoxicity control for T. cruzi growth inhibitor project, dose response (AID 651817); assay type: functional; settings: NIH3T3
[7] = antileishmanial activity on axenic amastigotes – plate reader, cherry pick, dose response (AID 651891); assay type: functional, cell-based; settings: Leishmania donovani
[8] = L6 myocyte viability loss – cell-based, plate reader, cherry-pick, cytotoxicity control, dose response (AID 651896); assay type: functional
[9] = Inhibition of T. cruzi Tulahuen strain amastigotes in L-6 muscle cells Measured in Cell-Based and Microorganism Combination System Using Plate Reader - 2138-03_Inhibitor_Dose_CherryPick_Activity.; assay type: functional; settings: Rattus norvegicus, L6
[10] = intracellular Trypanosoma cruzi inhibitors in host cells – cell-based, plate reader, cherry-pick samples, set 3, dose response (AID 651818); assay type: functional;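 further: compounds incubated with infected cells for about four days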
[11] = African trypanosome bloodstream form growth inhibition – STIB900 strain, plate reader, cherry pick, dose response (AID 651893); assay type: functional, cell-based, Trypanosoma brucei rhodesiense; settings: Trypanosoma brucei
[12] = Trypanosoma cruzi replication inhibitors in host cells – cell-based, plate reader, dry powder samples, dose response (AID 651845); assay type: functional
[13] = anti-trypanosomal activity in BESM host cells – imaging, CA-I/72 strain, bovine embryo skeletal muscle, dry powder, dose response (AID 651885); assay type: functional, cell-based
[14] = T. cruzi growth inhibition in host cells, dose response, cell-based, plate reader, dry powder, set 2 (AID 652275); assay type: functional
[15] = Inhibition of Plasmodium falciparum NF54 Measured in Cell-Based System Using Plate Reader - 2138-11_Inhibitor_Dose_CherryPick_Activity.; assay type: functional
[16] = target: T1, Tyrosine-protein phosphatase non-receptor type 7 (Homo sapiens, UniProt P35236); assay: HePTP tyrosine phosphatase activity blockers – biochemical, absorbance, leukemia target, primary screen (AID 521); assay type: functional
T1 sequence (P35236 whole entry): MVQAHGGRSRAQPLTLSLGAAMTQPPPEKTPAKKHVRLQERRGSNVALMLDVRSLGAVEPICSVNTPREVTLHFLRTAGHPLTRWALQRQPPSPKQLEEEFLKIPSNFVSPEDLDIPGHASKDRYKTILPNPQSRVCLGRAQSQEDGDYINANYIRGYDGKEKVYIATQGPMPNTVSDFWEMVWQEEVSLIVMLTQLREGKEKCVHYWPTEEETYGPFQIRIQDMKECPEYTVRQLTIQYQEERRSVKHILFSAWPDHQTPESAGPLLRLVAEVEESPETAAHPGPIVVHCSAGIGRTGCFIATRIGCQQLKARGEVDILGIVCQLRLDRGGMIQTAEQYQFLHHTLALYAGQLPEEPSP

Protein skinhead-1 = target: T2, Protein skinhead-1 (Caenorhabditis elegans, UniProt P34707); assay type: functional
T2 sequence (P34707 whole entry): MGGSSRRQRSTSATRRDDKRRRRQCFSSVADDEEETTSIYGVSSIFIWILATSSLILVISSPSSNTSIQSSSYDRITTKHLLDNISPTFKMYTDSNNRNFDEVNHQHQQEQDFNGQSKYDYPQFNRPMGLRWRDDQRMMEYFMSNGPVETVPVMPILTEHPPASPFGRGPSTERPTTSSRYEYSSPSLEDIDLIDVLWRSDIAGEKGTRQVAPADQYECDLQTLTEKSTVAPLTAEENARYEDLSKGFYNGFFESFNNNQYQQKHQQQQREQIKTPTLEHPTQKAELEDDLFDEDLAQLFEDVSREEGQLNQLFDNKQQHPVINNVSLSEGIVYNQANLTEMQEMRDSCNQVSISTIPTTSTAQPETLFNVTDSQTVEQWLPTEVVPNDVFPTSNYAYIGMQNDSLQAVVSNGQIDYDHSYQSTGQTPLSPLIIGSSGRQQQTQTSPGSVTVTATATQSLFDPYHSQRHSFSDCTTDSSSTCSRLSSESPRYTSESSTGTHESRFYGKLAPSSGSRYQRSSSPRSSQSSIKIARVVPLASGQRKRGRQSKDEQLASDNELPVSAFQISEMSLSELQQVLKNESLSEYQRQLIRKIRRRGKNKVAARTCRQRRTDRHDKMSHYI

[17] = reduction of Shn3 3'UTR-driven luciferase in osteoblasts – cell-based, Clone20 osteoblasts, firefly luciferase, cherry-picked, dose response (AID 624132); assay type: functional;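 further: firefly luciferase luminescence from reporter carrying the Shn3 3'UTR in osteoblasts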
[18] = EF1alpha-driven Renilla reporter with control 3'UTR suppression – Clone20-Shn3RL cells, dual-Glo, cherry-pick, set 2, counter-screen for Shn3 3'UTR targeting project, dose response (AID 720724); assay type: functional, cell-based; settings: Dual-Go Shn3RL
[19] = non-specific 3'UTR reporter inhibition in Clone20-Shn3RL – cell-based, Renilla luciferase, cherry-picked, counter-screen for Shn3 inhibitor project, dose response (AID 624133); assay type: functional
[20] = Shn3 3'UTR reporter signal decrease – cell-based, Clone20 osteoblasts, firefly luciferase, cherry-pick, set 2, Schnurri-3 inhibitor project, dose response (AID 720490); assay type: functional;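 further: actives lower the luminescence signal as inhibitors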
[21] = target: T3, NAD-dependent protein deacylase sirtuin-5, mitochondrial (Homo sapiens, UniProt Q9NXA8); assay: blockers of sirtuin-5 peptide desuccinylation – biochemical, fluorescence imaging, cherry-pick, set 6, dose response (AID 720597)
Fibrinogen beta chain [22] = target: T4, Fibrinogen beta chain (Homo sapiens, UniProt P02675); assay: Fluorescence polarization-based biochemical high throughput dose response assay to identify inhibitors that disrupt the binding of a cyclic peptide (Tn7) to the fibrin proteolytic product D-Dimer and fragment E complex [DD(E )].
Fibrinogen beta chain [23] = target: T4, Fibrinogen beta chain; assay: Fluorescence polarization-based biochemical high throughput dose response assay to identify inhibitors that disrupt the binding of a cyclic peptide (Tn6) to the fibrin proteolytic product D-Dimer and fragment E complex [DD(E )].
[24] = M. tuberculosis growth inhibition, HTS (AID 449762); assay type: functional
[25] = microbe, parasite or virus in culture; assay type: functional; settings: Mycobacterium tuberculosis
[26] = target: T3, NAD-dependent protein deacylase sirtuin-5, mitochondrial; assay: sirtuin-5 deacylation blockers, concentration series – biochemical, fluorescence imaging, cherry-pick, set 5, dose response (AID 720591);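 further: desuccinylation of succinyl peptide AMC substrate read as fluorescence after trypsin release; potency of inhibitors that lower fluorescence and may act on trypsin instead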
[27] = target: Glutathione-S-transferase (Schistosoma japonicum, UniProt Q26513); assay: GST-antibody interaction or FRET quenching – biochemical, TR-FRET, artefact control for Vif-APOBEC3G degradation inhibitor project, dose response (AID 1117362); assay type: functional
[28] = viability loss in HepG2 liver cells – cell-based, ATP luminescence, cherry-pick, set 6, cytotoxicity control, dose response (AID 1053125); assay type: functional
[29] = target: T5, Calpain-2 catalytic subunit (Sus scrofa, UniProt P43367); assay: m-calpain protease blockers, concentration series – biochemical, fluorogenic peptide substrate, dose response (AID 1420); assay type: functional
T5 sequence (P43367 whole entry): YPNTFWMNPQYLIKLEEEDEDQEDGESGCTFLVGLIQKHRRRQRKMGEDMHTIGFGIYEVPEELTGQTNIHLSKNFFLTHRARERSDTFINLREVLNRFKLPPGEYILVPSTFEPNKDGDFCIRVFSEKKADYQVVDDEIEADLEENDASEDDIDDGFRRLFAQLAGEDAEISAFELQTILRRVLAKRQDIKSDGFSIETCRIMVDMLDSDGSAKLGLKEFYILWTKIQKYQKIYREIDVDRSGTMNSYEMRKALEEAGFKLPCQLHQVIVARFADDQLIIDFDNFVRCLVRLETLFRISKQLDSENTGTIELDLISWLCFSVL

[30] = NIH3T3 cell viability loss – ATP luminescence, mouse fibroblasts, counter-screen, dose response (AID 2010); assay type: functional, cell-based;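 further: cells exposed to compound for about 90 hours before reading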
[31] = Trypanosoma cruzi growth suppression in host cells – NIH3T3 host cells, beta-gal luminescence, confirmation (AID 2044); assay type: functional, cell-based;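 further: intracellular parasites grown in NIH/3T3 mouse fibroblasts as host cells; luminescent beta-galactosidase reporter signal from transgenic T. cruzi replicating inside host cells; inhibitors lower the luminescence signal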
[32] = target: Broad substrate specificity ATP-binding cassette transporter ABCG2 (Homo sapiens, UniProt Q9UNQ0); assay: blockers of JC-1 export by ABCG2 – Ig-MXP3 cells, flow cytometry, dose response (AID 1690); assay type: functional
[33] = target: ATP-dependent translocase ABCB1 (Homo sapiens, UniProt P08183); assay: inhibition of P-gp mediated JC-1 efflux – Jurkat-DNR cells, flow cytometry, dose response (AID 1689); assay type: functional
cells [34] = settings: HEK293
cells [35] = assay: cells

T3 sequence (Q9NXA8 whole entry, the tested form may be a part): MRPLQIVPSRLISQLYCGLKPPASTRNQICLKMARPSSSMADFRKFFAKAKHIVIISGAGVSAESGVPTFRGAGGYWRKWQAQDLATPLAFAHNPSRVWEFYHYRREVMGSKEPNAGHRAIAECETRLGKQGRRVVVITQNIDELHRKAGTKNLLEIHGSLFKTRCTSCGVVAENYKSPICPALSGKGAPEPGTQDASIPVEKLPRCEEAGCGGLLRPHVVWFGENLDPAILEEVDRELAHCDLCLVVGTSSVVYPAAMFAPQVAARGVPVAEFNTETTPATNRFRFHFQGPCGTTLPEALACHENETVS
T4 sequence (P02675 whole entry, the tested form may be a part): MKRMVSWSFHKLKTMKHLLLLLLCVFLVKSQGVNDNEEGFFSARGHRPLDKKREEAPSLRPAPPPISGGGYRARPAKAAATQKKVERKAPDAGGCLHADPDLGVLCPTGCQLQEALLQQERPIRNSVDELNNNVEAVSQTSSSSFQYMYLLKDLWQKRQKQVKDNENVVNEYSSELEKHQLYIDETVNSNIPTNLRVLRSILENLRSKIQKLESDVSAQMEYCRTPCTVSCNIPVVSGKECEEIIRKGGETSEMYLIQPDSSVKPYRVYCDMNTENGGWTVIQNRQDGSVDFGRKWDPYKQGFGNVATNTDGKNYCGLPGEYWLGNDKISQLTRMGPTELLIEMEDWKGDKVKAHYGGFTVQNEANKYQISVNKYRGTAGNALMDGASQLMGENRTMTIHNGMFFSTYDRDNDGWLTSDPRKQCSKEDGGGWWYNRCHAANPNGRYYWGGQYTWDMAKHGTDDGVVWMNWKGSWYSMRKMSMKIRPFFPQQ
Sequence of Glutathione-S-transferase (Q26513 whole entry): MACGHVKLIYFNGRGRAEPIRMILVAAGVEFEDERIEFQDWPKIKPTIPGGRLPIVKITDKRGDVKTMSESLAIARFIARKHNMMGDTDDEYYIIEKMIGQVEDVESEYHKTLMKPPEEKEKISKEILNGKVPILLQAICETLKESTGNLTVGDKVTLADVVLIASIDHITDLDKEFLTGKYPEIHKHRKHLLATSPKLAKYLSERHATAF
Sequence of Paired box protein Pax-8 (Q06710 whole entry): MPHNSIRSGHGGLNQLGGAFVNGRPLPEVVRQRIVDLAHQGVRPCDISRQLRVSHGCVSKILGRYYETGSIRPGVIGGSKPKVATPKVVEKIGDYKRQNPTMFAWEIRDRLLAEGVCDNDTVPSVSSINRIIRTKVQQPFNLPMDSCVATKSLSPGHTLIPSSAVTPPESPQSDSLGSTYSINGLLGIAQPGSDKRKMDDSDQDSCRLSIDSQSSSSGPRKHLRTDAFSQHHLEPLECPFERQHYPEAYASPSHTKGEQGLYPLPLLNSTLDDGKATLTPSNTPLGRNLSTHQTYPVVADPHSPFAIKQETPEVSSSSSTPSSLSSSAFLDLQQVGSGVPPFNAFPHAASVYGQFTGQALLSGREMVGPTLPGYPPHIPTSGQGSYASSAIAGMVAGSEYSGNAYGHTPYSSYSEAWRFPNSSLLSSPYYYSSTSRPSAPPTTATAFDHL
Sequence of Broad substrate specificity ATP-binding cassette transporter ABCG2 (Q9UNQ0 whole entry): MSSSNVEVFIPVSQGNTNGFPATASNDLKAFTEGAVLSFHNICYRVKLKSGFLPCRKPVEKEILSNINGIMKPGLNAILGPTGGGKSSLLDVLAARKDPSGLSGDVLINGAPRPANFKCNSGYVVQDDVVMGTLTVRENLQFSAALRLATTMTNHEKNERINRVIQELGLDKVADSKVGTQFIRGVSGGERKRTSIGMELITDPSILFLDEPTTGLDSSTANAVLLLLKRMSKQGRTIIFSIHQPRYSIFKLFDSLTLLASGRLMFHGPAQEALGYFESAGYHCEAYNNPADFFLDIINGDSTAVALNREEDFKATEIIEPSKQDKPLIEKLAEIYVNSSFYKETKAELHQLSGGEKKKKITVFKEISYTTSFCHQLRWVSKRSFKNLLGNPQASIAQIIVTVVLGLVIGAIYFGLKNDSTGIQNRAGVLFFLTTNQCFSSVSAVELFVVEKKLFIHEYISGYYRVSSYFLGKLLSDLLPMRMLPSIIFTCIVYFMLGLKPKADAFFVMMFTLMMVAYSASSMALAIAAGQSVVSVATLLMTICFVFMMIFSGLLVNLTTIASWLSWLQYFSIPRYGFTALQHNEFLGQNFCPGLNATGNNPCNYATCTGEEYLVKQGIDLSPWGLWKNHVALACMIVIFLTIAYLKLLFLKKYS
Sequence of ATP-dependent translocase ABCB1 (P08183 whole entry): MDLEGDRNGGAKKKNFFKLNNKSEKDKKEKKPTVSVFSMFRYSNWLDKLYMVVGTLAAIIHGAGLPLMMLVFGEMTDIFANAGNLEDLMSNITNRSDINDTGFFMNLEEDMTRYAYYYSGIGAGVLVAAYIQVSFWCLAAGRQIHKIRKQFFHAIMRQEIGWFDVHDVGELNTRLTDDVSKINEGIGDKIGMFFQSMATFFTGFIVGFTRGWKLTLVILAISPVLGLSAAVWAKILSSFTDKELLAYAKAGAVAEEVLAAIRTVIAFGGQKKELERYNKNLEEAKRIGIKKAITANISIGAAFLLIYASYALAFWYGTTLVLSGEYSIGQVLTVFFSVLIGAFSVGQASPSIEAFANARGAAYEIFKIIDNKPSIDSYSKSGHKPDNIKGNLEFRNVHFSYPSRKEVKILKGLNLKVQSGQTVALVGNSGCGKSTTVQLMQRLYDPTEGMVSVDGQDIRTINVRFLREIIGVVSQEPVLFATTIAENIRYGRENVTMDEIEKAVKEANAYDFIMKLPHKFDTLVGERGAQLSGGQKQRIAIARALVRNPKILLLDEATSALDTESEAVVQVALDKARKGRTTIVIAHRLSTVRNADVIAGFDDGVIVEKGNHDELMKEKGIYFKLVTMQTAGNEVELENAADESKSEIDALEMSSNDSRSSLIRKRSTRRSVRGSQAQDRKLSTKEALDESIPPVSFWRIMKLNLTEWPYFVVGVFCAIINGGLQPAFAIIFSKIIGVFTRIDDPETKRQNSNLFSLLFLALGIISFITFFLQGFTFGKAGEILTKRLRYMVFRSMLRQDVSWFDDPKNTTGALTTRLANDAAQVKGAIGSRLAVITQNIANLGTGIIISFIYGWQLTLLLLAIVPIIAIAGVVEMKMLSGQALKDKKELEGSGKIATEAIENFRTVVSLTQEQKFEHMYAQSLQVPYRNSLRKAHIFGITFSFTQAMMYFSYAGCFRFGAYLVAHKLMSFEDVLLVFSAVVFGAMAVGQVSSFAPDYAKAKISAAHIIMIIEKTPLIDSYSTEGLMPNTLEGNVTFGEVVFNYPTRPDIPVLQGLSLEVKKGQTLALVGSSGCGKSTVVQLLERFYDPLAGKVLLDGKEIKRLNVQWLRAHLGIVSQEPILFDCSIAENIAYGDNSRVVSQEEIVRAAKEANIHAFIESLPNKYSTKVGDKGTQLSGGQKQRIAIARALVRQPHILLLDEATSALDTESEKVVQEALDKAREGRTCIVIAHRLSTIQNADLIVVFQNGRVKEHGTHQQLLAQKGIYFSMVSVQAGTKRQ

With O=C1/C(=C/c2ccccc2)SC(=S)N1CC(=O)N1CCCCC1c1cccnc1 (stereo not drawn) the AC50 [1] was 70.7 µM (active), the IC50 (Vero [2]) was > 25 µM (active) and the AC50 (Paired box protein Pax-8) was 4.37 µM (active). For the same molecule, the CC50 (Vero [3]) was 14.6 µM (active), the AC50 [4] was 42.1 µM (active) and the AC50 [5] was 61.9 µM (active).
For C[C@@H]1CN([C@H](C)CO)C(=O)c2cccc(NC(=O)c3ccncc3)c2O[C@H]1CN(C)Cc1ccc2c(c1)OCO2, the AC50 [6] was 39 µM (inactive), the IC50 [7] was > 100 µM (inactive) and the IC50 [8] was > 100 µM (inactive). The IC50 [9] was 5.79 µM (inactive), the AC50 [10] was 0.08 µM (active) and the IC50 [11] was 6.86 µM (inactive). The AC50 [12] was 0.311 µM (active), the IC50 [13] was 0.049 µM (active) and the AC50 [14] was 0.0187 µM (active). For the same molecule, the IC50 [15] was 5.79 µM (inactive).
In the case of O=c1c2c3c(sc2nc2n1CCC2)CCC3, the IC50 [16] is reported as > 100 µM (not active).
In the case of O=C(CSc1c2c(nc3ccc(Cl)cc13)CCCC2)NCc1ccco1, the IC50 (Protein skinhead-1) is reported as > 100 µM (inactive), the AC50 [17] is reported as 5.71 µM (active) and the AC50 [18] is reported as 44.7 µM (active). The AC50 [19] was 31.2 µM (active), the CC50 (Vero [3]) was > 25 µM (active) and the AC50 [20] was 8.55 µM (active).
For COc1ccc(S(=O)(=O)Nc2ccc3c(c2)C(=O)N([C@@H](C)CO)C[C@@H](C)[C@H](CN(C)S(=O)(=O)c2ccccc2)OCCCC[C@H](C)O3)cc1, the AC50 [21] was > 30 µM (inactive).
For CCOC(=O)C1=Nc2cccc3c(O)ccc1c23, the IC50 (Fibrinogen beta chain [22]) was > 9.25 µM (active) and the IC50 (Fibrinogen beta chain [23]) was 22.3 µM (inactive).
With COc1cc2c(-c3ccc4[nH]ccc4c3)c(-c3ccc(C#N)cc3)oc(=O)c2cc1OC the IC50 [24] was > 100 µM (active) and the CC50 [25] was > 40 µM (active).
In the case of CCN1CCN(C(=O)c2ccc(C(F)(F)F)cc2)CC1, the AC50 [26] is reported as > 30 µM (inactive).
In the case of Cn1cnnc1SC/C(O)=C(\C#N)c1nc2ccccc2[nH]1, the IC50 [27] is reported as > 100 µM (active).
For CCOC(=O)c1c(NC(=O)CSc2ncccn2)sc2c1CCN(Cc1ccccc1)C2, the AC50 [28] was > 52 µM (inactive), the IC50 [29] was 5.71 µM (not active) and the EC50 [30] was > 60 µM (not active). The EC50 [31] was 3.07 µM (active), the EC50 [32] was 1.88 µM (active) and the EC50 [33] was 9.93 µM (active). The AC50 (cells [34]) was > 52 µM (inactive) and the AC50 (cells [35]) was > 70 µM (inactive).
